# Earlier results as cited in US8097606B2, “Antiglucocorticoids for the treatment of catatonia” (Corcept Therapeutics, Inc., priority 2003, dated 2012).
compound,measurement,value
"CC#C[C@]1(O)CC[C@H]2[C@@H]3CCC4=CC(=O)CCC4=C3[C@@H](c3ccc(N(C)C)cc3)C[C@@]21C [mifepristone, 17-β-hydroxy-11-β-(4-dimethyl-aminophenyl)-17-α-(1-propynyl)-estra-4,9-dien-3-one]",share of the daily dose excreted in the urine,less than 0.5%
